Data reported in patent US20220062299A1, “USE OF GLUCOCORTICOID STEROIDS IN PREVENTING AND TREATING CONDITIONS OF MUSCLE WASTING, AGING AND METABOLIC DISORDER” (NORTHWESTERN UNIVERSITY, priority 2018, published 2022).

Key:
mdx mice = test: Morbidity, muscle mass, muscle function, plethysmography, echocardiography, mdx mice, 40 weeks; type: in vivo, mouse; details: weekly prednisone
Protocol: Histology. Excised tissues (muscles, omental fat, heart) were placed in 10% formaldehyde (Cat #245-684; Fisher Scientific, Waltham, Mass.) for histologic processing. Seven μm sections from the center of paraffin-embedded muscles were stained with hematoxylin and eosin (H&E; cat #12013B, 1070C; Newcomer Supply, Middleton, Wis.) and Masson's trichrome (Cat #HT-15; Sigma-Aldrich; St. Louis, Mo.). Myofiber/adipocyte CSA quantitation was conducted on 400 myofibers/adipocytes per tissue per mouse. Imaging was performed using a Zeiss Axio Observer A1 microscope, using 10× and 20× (short-range) objectives. Brightfield pictures were acquired via Gryphax software (version 1.0.6.598; Jenoptik, Jena, Germany). Area quantitation was performed by means of ImageJ (Schneider et al., 2012). Sample processing, imaging and CSA quantitation were conducted blinded to treatment groups.
Muscle function, whole-body plethysmography, echocardiography. Forelimb grip strength was monitored using a meter (Cat #1027SM; Columbus Instruments, Columbus, Ohio) blinded to treatment groups. Animals performed ten pulls with 5 seconds rest on a flat surface between pulls. Immediately before sacrifice, in situ tetanic force from tibialis anterior muscle was measured using a Whole Mouse Test System (Cat #1300A; Aurora Scientific, Aurora, ON, Canada) with a 1N dual-action lever arm force transducer (3000-LR, Aurora Scientific, Aurora, ON, Canada) in anesthetized animals (0.8 I/min of 1.5% isoflurane in 100% O2). […] Time of contraction was assessed as time to max tetanic value within the 0.0-0.5 sec range of each tetanic contraction, while time of relaxation was assessed as time to 90% min tetanic value within the 0.5-0.8 sec range of every tetanus. […] Data was recorded for a total of 15 minutes broken into 3 consecutive 5-minute periods. […] Cardiac function was assessed by echocardiography, which was conducted under anesthesia (0.8 L/min of 1.5% vaporized isoflurane in 100% O2) on mice between 2 and 5 days before sacrifice. […]

[1] = system: isolated dystrophic myofibers; test: 2-NBDG uptake assay in live myofibers; type: in vivo, mouse; details: mdx mice; weekly prednisone
Protocol: 2-NBDG uptake assay and glycemia/lactate monitoring. 2-NBDG uptake assay in live myofibers was conducted adapting previously reported conditions (Zou et al., 2005). FDB muscles were collected and carefully treated with collagenase type II and hand pipetting to liberate single myofibers, following reported procedures (Demonbreun and McNally, 2015). Myofibers from two FDB muscles were collected in 1 ml Ringer's solution (for 1 l, 7.2 g NaCl, 0.17 g CaCl2, 0.37 g KCl; pH, 7.4). 200 μl of myofiber suspension were dispensed per well of chambered coverglass (#155382; Thermo Fisher, Waltham, Mass.) and imaged as baseline condition for both transmitted light (1 ms integration) and green fluorescent channels (100 ms integration) at the Zeiss Axio Observer A1 microscope, using 20× short-range objective and the ZEN 2 software (version 2011; Zeiss, Jena, Germany). […] 2-NBDG uptake was quantitated as relative fluorescent units, calculated as intra-myofiber fluorescence after incubation subtracted of average baseline fluorescence. Fluorescence intensity was quantitated through serial analysis of acquired images (3 areas of approximately 85 μm^2 were analyzed for average fluorescence value per myofiber; >10 myofibers were analyzed per mouse) with ImageJ software (Schneider et al., 2012). […]

## C[C@]12C=CC(=O)C=C1CC[C@@H]1[C@@H]2C(=O)C[C@@]2(C)[C@H]1CC[C@]2(O)C(=O)CO [prednisone, Prednisone]
Mdx mice; mdx male mice, 40 weeks from 6 weeks of age
  morbidity: improved
Mdx mice; mdx mice, 40 weeks
  muscle mass and force: increased
  performance of limb muscles, respiratory muscles, and heart: improved
[1]
  myogenic glucose uptake (2-NBDG in isolated myofibers): enhanced
